Reference: patent publication US10689354B2, “Aminoazole derivative” (Teijin Pharma Limited, priority 2015, dated 2020)

Target: T1, androgen receptor (AR-LBD) (Rattus norvegicus, UniProt P15207)
T1 construct: 5 μL of 2×AR-LBD/Fluoromone AL Red Complex contained in the kit; purchased Invitrogen
T1 sequence (P15207 651-882 limits assumed): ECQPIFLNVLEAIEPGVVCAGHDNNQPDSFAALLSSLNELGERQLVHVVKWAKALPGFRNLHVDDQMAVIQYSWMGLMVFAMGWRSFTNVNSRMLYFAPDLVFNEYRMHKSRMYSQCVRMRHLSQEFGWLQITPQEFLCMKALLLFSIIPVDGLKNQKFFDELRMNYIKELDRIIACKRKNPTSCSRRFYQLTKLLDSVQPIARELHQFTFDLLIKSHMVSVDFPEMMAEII
Test: Evaluation of androgen receptor affinity (PolarScreen Androgen Receptor Competitor Assay Kit, Red; fluorescence polarization)
Details: 22° C. for 5 hours, relative to binding rate of 1 μM DHT, read-out: AR affinity (pEC50) (converted)
Procedure, shortened: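 Compounds were mixed with AR-LBD/Fluoromone AL Red complex and incubated 5 h at 22° C before fluorescence polarization was read. Binding was expressed relative to 1 μM dihydrotestosterone, and pEC50 (concentration giving 50% of that binding) came from a 4-parameter fit.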

Row | Compound | EC50 [µM]
1 | CS(=O)(=O)NC(=O)c1nc(N(Cc2ccccc2)c2ccc(C#N)cc2)sc1-c1ccccc1 [Compound 601, 2-(N-benzyl-4-cyano-anilino)-N-methylsulfonyl-5-phenyl-thiazole-4-carboxamide] | > 2
2 | Cc1sc(N(Cc2ccccc2)c2ccc(C#N)cn2)nc1C(=O)NS(C)(=O)=O [Compound 602, 2-[benzyl-(5-cyano-2-pyridyl)amino]-5-methyl-N-methylsulfonyl-thiazole-4-carboxamide] | 0.501
3 | Cc1sc(N(Cc2ccccc2)c2ccc(C#N)nc2)nc1C(=O)NS(C)(=O)=O [Compound 604, 2-[benzyl-(6-cyano-3-pyridyl)amino]-5-methyl-N-methylsulfonyl-thiazole-4-carboxamide] | > 2
4 | Cc1sc(N(Cc2ccccc2)c2cccc(CCO)c2)nc1C(=O)NS(C)(=O)=O [Compound 605, 2-[N-benzyl-3-(2-hydroxyethyl)anilino]-5-methyl-N-methylsulfonyl-thiazole-4-carboxamide] | > 2
5 | Cc1sc(N(Cc2ccccc2)c2ccccc2CO)nc1C(=O)NS(C)(=O)=O [Compound 606, 2-[N-benzyl-2-(hydroxymethyl)anilino]-5-methyl-N-methylsulfonyl-thiazole-4-carboxamide] | > 2
6 | Cc1oc(N(Cc2ccc(C#N)cc2)c2ccc(C#N)cc2)nc1C(=O)NS(C)(=O)=O [Compound 615, 2-[4-cyano-N-[(4-cyanophenyl)methyl]anilino]-5-methyl-N-methylsulfonyl-oxazole-4-carboxamide] | 0.398
7 | Cc1nc(CN(c2ccc(C#N)cc2)c2nc(C(=O)NS(C)(=O)=O)c(C)o2)cs1 [Compound 619, 2-[4-cyano-N-[(2-methylthiazol-4-yl)methyl]anilino]-5-methyl-N-methylsulfonyl-oxazole-4-carboxamide] | > 2
8 | Cc1sc(N(c2ccc(C#N)cc2F)[C@@H](CO)c2ccccc2)nc1C(=O)NS(C)(=O)=O [Compound 667, 2-(4-cyano-2-fluoro-N-[(1R)-2-hydroxy-1-phenyl-ethyl]anilino)-5-methyl-N-methylsulfonyl-thiazole-4-carboxamide] | > 2
9 | Cc1sc(N(Cc2ccccc2)CC2CCCCC2)nc1C(=O)NS(C)(=O)=O [Compound 668, 2-[benzyl(cyclohexylmethyl)amino]-5-methyl-N-methylsulfonyl-thiazole-4-carboxamide] | > 2
10 | Cc1sc(N(Cc2ccccc2)C2CCCC2)nc1C(=O)NS(C)(=O)=O [Compound 669, 2-[benzyl(cyclopentyl)amino]-5-methyl-N-methylsulfonyl-thiazole-4-carboxamide] | 0.631
11 | Cc1sc(N(Cc2ccccc2)C2CCCCC2)nc1C(=O)NS(C)(=O)=O [Compound 670, 2-[benzyl(cyclohexyl)amino]-5-methyl-N-methylsulfonyl-thiazole-4-carboxamide] | > 2
12 | Cc1sc(N(Cc2ccccc2)C(C)Cc2ccccc2)nc1C(=O)NS(C)(=O)=O (stereo not drawn) [Compound 674, 2-[benzyl-(1-methyl-2-phenyl-ethyl)amino]-5-methyl-N-methylsulfonyl-thiazole-4-carboxamide] | > 2
13 | Cc1sc(N(Cc2ccccc2)Cc2csc3cc(C#N)ccc23)nc1C(=O)NS(C)(=O)=O [Compound 675, 2-[benzyl-[(6-cyanobenzothiophen-3-yl)methyl]amino]-5-methyl-N-methylsulfonyl-thiazole-4-carboxamide] | > 2
14 | Cc1sc(N(Cc2ccccc2)Cc2csc3cc(C(F)(F)F)ccc23)nc1C(=O)NS(C)(=O)=O [Compound 676, 2-[benzyl-[[6-(trifluoromethyl)benzothiophen-3-yl]methyl]amino]-5-methyl-N-methylsulfonyl-thiazole-4-carboxamide] | > 2
15 | Cc1sc(N(CCn2nccn2)Cc2ccccc2)nc1C(=O)NS(C)(=O)=O [Compound 679, 2-[benzyl-[2-(triazol-2-yl)ethyl]amino]-5-methyl-N-methylsulfonyl-thiazole-4-carboxamide] | > 2
16 | Cc1sc(N(CCn2cncn2)Cc2ccccc2)nc1C(=O)NS(C)(=O)=O [Compound 680, 2-[benzyl-[2-(1,2,4-triazol-1-yl)ethyl]amino]-5-methyl-N-methylsulfonyl-thiazole-4-carboxamide] | > 2
17 | Cc1ccn(CCN(Cc2ccccc2)c2nc(C(=O)NS(C)(=O)=O)c(C)s2)n1 [Compound 681, 2-[benzyl-[2-(3-methylpyrazol-1-yl)ethyl]amino]-5-methyl-N-methylsulfonyl-thiazole-4-carboxamide] | > 2
18 | Cc1sc(N(CCn2nccc2C)Cc2ccccc2)nc1C(=O)NS(C)(=O)=O [Compound 682, 2-[benzyl-[2-(5-methylpyrazol-1-yl)ethyl]amino]-5-methyl-N-methylsulfonyl-thiazole-4-carboxamide] | > 2
19 | Cc1sc(N(CCC(C)(C)C)Cc2ccccc2)nc1C(=O)NS(C)(=O)=O [Compound 686, 2-[benzyl(3,3-dimethylbutyl)amino]-5-methyl-N-methylsulfonyl-thiazole-4-carboxamide] | > 2
20 | Cc1sc(N(CCC2CC2)Cc2ccccc2)nc1C(=O)NS(C)(=O)=O [Compound 687, 2-[benzyl(2-cyclopropylethyl)amino]-5-methyl-N-methylsulfonyl-thiazole-4-carboxamide] | > 2
21 | Cc1sc(N(CCn2cccn2)Cc2ccccc2)nc1C(=O)NS(C)(=O)=O [Compound 688, 2-[benzyl(2-pyrazol-1-ylethyl)amino]-5-methyl-N-methylsulfonyl-thiazole-4-carboxamide] | > 2
22 | Cc1cc(C)n(CCN(Cc2ccccc2)c2nc(C(=O)NS(C)(=O)=O)c(C)s2)n1 [Compound 689, 2-[benzyl-[2-(3,5-dimethylpyrazol-1-yl)ethyl]amino]-5-methyl-N-methylsulfonyl-thiazole-4-carboxamide] | > 2
23 | Cc1sc(N(CCc2ccc3nccnc3c2)Cc2ccccc2)nc1C(=O)NS(C)(=O)=O [Compound 690, 2-[benzyl(2-quinoxalin-6-ylethyl)amino]-5-methyl-N-methylsulfonyl-thiazole-4-carboxamide] | 1
24 | Cc1noc(C)c1CCN(Cc1ccccc1)c1nc(C(=O)NS(C)(=O)=O)c(C)s1 [Compound 691, 2-[benzyl-[2-(3,5-dimethylisoxazol-4-yl)ethyl]amino]-5-methyl-N-methylsulfonyl-thiazole-4-carboxamide] | > 2

The next lines start with the values.

Row | EC50 [µM] | Compound
25 | 0.794 | CCS(=O)(=O)NC(=O)c1nc(N(CCc2ccc(Cl)cc2)CC2CCCCC2)sc1C [Compound 698, 2-[2-(4-chlorophenyl)ethyl-(cyclohexylmethyl)amino]-N-ethylsulfonyl-5-methyl-thiazole-4-carboxamide]
26 | > 2 | Cc1sc(N(CCc2ccc(Cl)cc2)CC2CCCCC2)nc1C(=O)NS(=O)(=O)C(F)(F)F [Compound 700, 2-[2-(4-chlorophenyl)ethyl-(cyclohexylmethyl)amino]-5-methyl-N-(trifluoromethylsulfonyl)thiazole-4-carboxamide]
27 | > 2 | Cc1sc(N(CCC2CCNCC2)Cc2ccccc2)nc1C(=O)NS(C)(=O)=O [Compound 705, 2-[benzyl-[2-(4-piperidyl)ethyl]amino]-5-methyl-N-methylsulfonyl-thiazole-4-carboxamide]
28 | > 2 | Cc1nc(CCN(Cc2ccccc2)c2nc(C(=O)NS(C)(=O)=O)c(C)s2)cs1 [Compound 706, 2-[benzyl-[2-(2-methylthiazol-4-yl)ethyl]amino]-5-methyl-N-methylsulfonyl-thiazole-4-carboxamide]
29 | > 2 | Cc1sc(N(CCc2coc3ccccc23)Cc2ccccc2)nc1C(=O)NS(C)(=O)=O [Compound 707, 2-[2-(benzofuran-3-yl)ethyl-benzyl-amino]-5-methyl-N-methylsulfonyl-thiazole-4-carboxamide]
30 | > 2 | Cc1sc(N(CCC(F)(F)F)Cc2ccccc2)nc1C(=O)NS(C)(=O)=O [Compound 711, 2-[benzyl(3,3,3-trifluoropropyl)amino]-5-methyl-N-methylsulfonyl-thiazole-4-carboxamide]
31 | > 2 | Cc1sc(N(CCC(O)CO)Cc2ccccc2)nc1C(=O)NS(C)(=O)=O (stereo not drawn) [Compound 712, 2-[benzyl(3,4-dihydroxybutyl)amino]-5-methyl-N-methylsulfonyl-thiazole-4-carboxamide]
32 | > 2 | Cc1sc(N(CCc2ccc(C#N)cc2)CC2CCCCC2)nc1C(=O)NS(=O)(=O)C1CC1 [Compound 718, 2-[2-(4-cyanophenyl)ethyl-(cyclohexylmethyl)amino]-N-cyclopropylsulfonyl-5-methyl-thiazole-4-carboxamide]
33 | > 2 | Cc1sc(N(CCc2ccc(C#N)cc2)CC2CCCCC2)nc1C(=O)NS(=O)(=O)C(F)(F)F [Compound 719, 2-[2-(4-cyanophenyl)ethyl-(cyclohexylmethyl)amino]-5-methyl-N-(trifluoromethylsulfonyl)thiazole-4-carboxamide]
34 | > 2 | Cc1sc(N(CCc2ccc(C#N)cc2)CC2CCCCC2)nc1C(=O)NS(=O)(=O)Cc1cccc(F)c1 [Compound 720, 2-[2-(4-cyanophenyl)ethyl-(cyclohexylmethyl)amino]-N-[(3-fluorophenyl)methylsulfonyl]-5-methyl-thiazole-4-carboxamide]
35 | > 2 | Cc1sc(N(CCc2ccc(C(N)=O)cc2)Cc2ccccc2)nc1C(=O)NS(C)(=O)=O [Compound 737, 2-[benzyl-[2-(4-carbamoylphenyl)ethyl]amino]-5-methyl-N-methylsulfonyl-thiazole-4-carboxamide]
36 | 0.631 | Cc1sc(N(CCc2ccncc2)Cc2ccccc2)nc1C(=O)NS(C)(=O)=O [Compound 743, 2-[benzyl-[2-(4-pyridyl)ethyl]amino]-5-methyl-N-methylsulfonyl-thiazole-4-carboxamide]
